# Measurements reported in article PMC12741935 (Alzheimer's & Dementia, 2025).
# Test system: brain proteome
# Assay: Brain proteomics (DIA LC-MS/MS) after chronic NVS-PAK1-1 100 mg/kg BID PO vs vehicle in 5xFAD mice
# Type: in vivo
# Conditions: for NES (gene set enrichment), NVS-PAK1-1 vs vehicle: Young Female
# Experimental: A total of 91 brain samples were prepared from mice in this study and analyzed by mass spectrometry proteomics. One third of the mixed‐chopped left hemisphere tissue was homogenized in 8 M urea lysis buffer (8 M urea, 10 mM Tris, 100 mM NaH2PO4, pH 8.5) with HALT protease and phosphatase inhibitor cocktail (Thermo Fisher) and sonicated for three cycles consisting of 5 seconds of active sonication at 30% amplitude, followed by 15 seconds on ice. Samples were then centrifuged for 5 minutes at 15,000 g and the supernatant was transferred to a new tube. Protein concentration was determined by bicinchoninic acid (BCA) assay (Pierce). For protein digestion, 200 µg of each sample was aliquoted and volumes normalized with additional lysis buffer. Samples were reduced with 5 mM DTT at room temperature for 30 minutes, followed by 10 mM iodoacetamide (IAA) alkylation in the dark for another 30 minutes. Lysyl endopeptidase (Wako) at 1:25 (w/w) was added, and digestion allowed to proceed overnight. Samples were then 7‐fold diluted with 50 mM ammonium bicarbonate. Trypsin (Promega) was then added at 1:25 (w/w) and digestion proceeded overnight. The peptide solutions were acidified to a final concentration of 1% (vol/vol) FA and 0.1% (vol/vol) TFA and desalted with a 10 mg HLB column (Oasis). Each HLB column was first rinsed with 1 mL of methanol, washed with 1 mL 50% (vol/vol) acetonitrile (ACN), and equilibrated with 2 × 1 mL 0.1% (vol/vol) TFA. The samples were then loaded onto the column and washed with 2 × 1 mL 0.1% (vol/vol) TFA. Elution was performed with 0.5 mL 50% (vol/vol) ACN. Samples were split into 50 µL and 400 µL aliquots. Residuals from all samples were combined to create a global internal standard pool.
# Samples were resuspended in an equal volume of loading buffer (0.1% FA, 0.03% TFA, 1% ACN) and analyzed by LC‐MS/MS. Peptide eluents (1 µg) were separated on a Water's CSH (15 cm × 150 µM internal diameter [ID] with 1.7 µm CSH resin) by a Dionex Ultimate 3000 RSLCnano (Thermo Fisher). Buffer A was water with 0.1% (vol/vol) formic acid, and buffer B was 80% (vol/vol) acetonitrile in water with 0.1% (vol/vol) FA. Elution was performed over a 30 minute gradient. The gradient was from 1% to 99% solvent B. Peptides were monitored on an Orbitrap Fusion Lumos mass spectrometer (Thermo Fisher). Each cycle consisted of one full scan (MS1) performed with an m/z range of 380 to 985 at a 60,000 resolution at standard settings and 30 data independent scans (DIA) in 1.5 seconds. The higher energy collision‐induced dissociation (HCD) tandem scans were collected at 30% collision energy with an isolation of 10 m/z, a resolution of 15,000, an AGC setting of 200% normalized AGC target, and a maximum injection time set to 40 ms.
# Raw data files were converted to mzML format for downstream processing using ThermoRawFilerParser v.1.4.4.[30] The data were processed using Data‐Independent Acquisition by Neural Network (DIA‐NN) v.1.9.1.[31] A spectral library was generated using all canonical mouse proteins from UniProt and SwissProt (accessed September 24, 2024) and contaminants from the Common Repository of Adventitious Proteins (cRAP) database [https://www.thegpm.org/crap/]; these contaminant proteins were excluded from normalization and downstream analysis. DIA‐NN was run using parameters specified as follows: precursor charge was set from 1 to 4 and precursor m/z was set from 200 to 5000. Enzyme digestion was set to strict trypsin with 1 allowed missed cleavage, peptide length was set from 7 to 50, and peptide m/z was set from 150 to 3000. The maximum number of variable modifications was set to 3 and methionine oxidation was allowed as a variable modification. Cysteine carbamidomethylation was allowed as a fixed modification. MS1 and MS2 mass accuracy (in ppm) were set using autodetect and the scan window was set using autodetect. The false discovery rate (FDR) threshold was set to 1%. […]
compound,measurement,setting,value
"CC(C)NC(=O)N1CC[C@H](NC2=Nc3cc(F)ccc3N(CC(F)F)c3ccc(Cl)cc32)C1 [NVS‐PAK1‐1, (S)‐3‐([2‐chloro‐5‐(2,2‐difluoroethyl)‐8‐fluoro‐5H‐dibenzo[b,e][1,4]diazepin‐11‐yl]amino)‐N‐isopropylpyrrolidine‐1‐carboxamide]","logFC, FAD5X_A_tx vs FAD5X_B_veh","ATP8, Aged M 5xFAD brain",-0.1292
same,logFC_NVS.PAK1.1_vs_vehicle,"Acat2, Young F 5xFAD brain",-0.07095
same,logFC_NVS.PAK1.1_vs_vehicle,"Acly, Young F 5xFAD brain",-0.0659
same,logFC_NVS.PAK1.1_vs_vehicle,"Acly, Young M 5xFAD brain",-0.07659
same,logFC_NVS.PAK1.1_vs_vehicle,"Agk, Young F 5xFAD brain",0.08371
same,logFC_NVS.PAK1.1_vs_vehicle,"Agl, Young F 5xFAD brain",-0.0869
same,logFC_NVS.PAK1.1_vs_vehicle,"Aldh1l1, Young F 5xFAD brain",-0.1253
same,logFC_NVS.PAK1.1_vs_vehicle,"Anxa6, Young M 5xFAD brain",-0.118
same,logFC_NVS.PAK1.1_vs_vehicle,"App, Young F 5xFAD brain",-0.2576
same,logFC_NVS.PAK1.1_vs_vehicle,"Armcx5, Young M 5xFAD brain",0.3268
same,logFC_NVS.PAK1.1_vs_vehicle,"Atl2, Aged F 5xFAD brain",-0.08745
same,logFC_NVS.PAK1.1_vs_vehicle,"Atp2b4, Young M 5xFAD brain",0.1099
same,logFC_NVS.PAK1.1_vs_vehicle,"Atp5if1, Aged F 5xFAD brain",-0.5225
same,logFC_NVS.PAK1.1_vs_vehicle,"Calr, Young F 5xFAD brain",-0.07235
same,logFC_NVS.PAK1.1_vs_vehicle,"Cep170b, Young M 5xFAD brain",0.1293
same,logFC_NVS.PAK1.1_vs_vehicle,"Cfap61, Young F 5xFAD brain",-0.4846
same,logFC_NVS.PAK1.1_vs_vehicle,"Cfl2, Young F 5xFAD brain",0.1353
same,logFC_NVS.PAK1.1_vs_vehicle,"Chordc1, Young F 5xFAD brain",-0.1408
same,logFC_NVS.PAK1.1_vs_vehicle,"Ciapin1, Young M 5xFAD brain",-0.1789
same,logFC_NVS.PAK1.1_vs_vehicle,"Cops5, Aged M 5xFAD brain",0.1116
same,logFC_NVS.PAK1.1_vs_vehicle,"Cox7a2, Aged F 5xFAD brain",-0.07809
same,logFC_NVS.PAK1.1_vs_vehicle,"Dctn3, Young F 5xFAD brain",-0.07573
same,logFC_NVS.PAK1.1_vs_vehicle,"Echdc1, Young F 5xFAD brain",-0.211
same,logFC_NVS.PAK1.1_vs_vehicle,"Eef1b, Young F 5xFAD brain",-0.1102
same,logFC_NVS.PAK1.1_vs_vehicle,"Eef2, Young F 5xFAD brain",-0.07944
same,logFC_NVS.PAK1.1_vs_vehicle,"Ehd3, Aged M 5xFAD brain",0.04696
same,logFC_NVS.PAK1.1_vs_vehicle,"Eif1, Young F 5xFAD brain",-0.1062
same,logFC_NVS.PAK1.1_vs_vehicle,"Elfn2, Aged M 5xFAD brain",-0.27
same,logFC_NVS.PAK1.1_vs_vehicle,"Fasn, Young F 5xFAD brain",-0.08056
same,logFC_NVS.PAK1.1_vs_vehicle,"Fdps.1, Young F 5xFAD brain",-0.1222
same,logFC_NVS.PAK1.1_vs_vehicle,"Fn3krp, Aged M 5xFAD brain",0.1203
same,"NES (gene set enrichment), NVS-PAK1-1 vs vehicle",GO:0005740 mitochondrial envelope,2.24
same,"NES (gene set enrichment), NVS-PAK1-1 vs vehicle",GO:0005743 mitochondrial inner membrane,2.303
same,"NES (gene set enrichment), NVS-PAK1-1 vs vehicle",GO:0019866 organelle inner membrane,2.289
same,"NES (gene set enrichment), NVS-PAK1-1 vs vehicle",GO:0031966 mitochondrial membrane,2.233
same,logFC_NVS.PAK1.1_vs_vehicle,"Gap43, Young F 5xFAD brain",0.1885
same,logFC_NVS.PAK1.1_vs_vehicle,"Gnb1.1, Aged F 5xFAD brain",-0.6461
same,logFC_NVS.PAK1.1_vs_vehicle,"Gng2, Young M 5xFAD brain",0.102
same,"logFC, FAD5X_A_tx vs FAD5X_B_veh","HC;Ighg2b, Aged M 5xFAD brain",0.3576
same,logFC_NVS.PAK1.1_vs_vehicle,"Hnrnpf, Aged F 5xFAD brain",-0.0585
same,logFC_NVS.PAK1.1_vs_vehicle,"Hprt1, Young F 5xFAD brain",0.09623
same,logFC_NVS.PAK1.1_vs_vehicle,"Hsp90ab1, Young F 5xFAD brain",-0.08556
same,logFC_NVS.PAK1.1_vs_vehicle,"Hsp90b1, Young F 5xFAD brain",-0.1385
same,logFC_NVS.PAK1.1_vs_vehicle,"Hspa8.1, Young F 5xFAD brain",-0.05148
same,logFC_NVS.PAK1.1_vs_vehicle,"Hsph1, Young F 5xFAD brain",-0.0893
same,logFC_NVS.PAK1.1_vs_vehicle,"Idh1, Young F 5xFAD brain",-0.08685
same,logFC_NVS.PAK1.1_vs_vehicle,"Idi1, Young F 5xFAD brain",-0.1582
same,logFC_NVS.PAK1.1_vs_vehicle,"Kctd16, Young M 5xFAD brain",0.1263
same,logFC_NVS.PAK1.1_vs_vehicle,"Klc1, Young F 5xFAD brain",-0.06729
same,logFC_NVS.PAK1.1_vs_vehicle,"Lcmt1, Young F 5xFAD brain",-0.08416
same,logFC_NVS.PAK1.1_vs_vehicle,"Lcp1, Young F 5xFAD brain",-0.2692
same,logFC_NVS.PAK1.1_vs_vehicle,"Lrfn4, Aged F 5xFAD brain",0.3404
same,logFC_NVS.PAK1.1_vs_vehicle,"Ly6h, Young M 5xFAD brain",0.08528
same,logFC_NVS.PAK1.1_vs_vehicle,"Map1lc3a, Young M 5xFAD brain",0.1055
same,logFC_NVS.PAK1.1_vs_vehicle,"Map7d2, Aged M 5xFAD brain",0.1103
same,logFC_NVS.PAK1.1_vs_vehicle,"Mark4, Young F 5xFAD brain",0.2384
same,logFC_NVS.PAK1.1_vs_vehicle,"Mib2, Aged M 5xFAD brain",-0.4263
same,logFC_NVS.PAK1.1_vs_vehicle,"Mipep, Aged F 5xFAD brain",1.596
same,logFC_NVS.PAK1.1_vs_vehicle,"Myh10, Aged F 5xFAD brain",-1.404
same,logFC_NVS.PAK1.1_vs_vehicle,"Mylk, Aged M 5xFAD brain",-1.455
same,logFC_NVS.PAK1.1_vs_vehicle,"Nck2, Aged M 5xFAD brain",0.1477
same,logFC_NVS.PAK1.1_vs_vehicle,"Nherf1, Young F 5xFAD brain",-0.1106
same,logFC_NVS.PAK1.1_vs_vehicle,"Nmd3, Young F 5xFAD brain",-0.95
same,logFC_NVS.PAK1.1_vs_vehicle,"Nmt1, Young F 5xFAD brain",-0.1011
same,logFC_NVS.PAK1.1_vs_vehicle,"Nomo1, Young F 5xFAD brain",-0.1733
same,logFC_NVS.PAK1.1_vs_vehicle,"Nrdc, Aged M 5xFAD brain",-0.1746
same,logFC_NVS.PAK1.1_vs_vehicle,"Ntm, Young M 5xFAD brain",0.1007
same,logFC_NVS.PAK1.1_vs_vehicle,"Pkm, Aged M 5xFAD brain",-0.04674
same,logFC_NVS.PAK1.1_vs_vehicle,"Plpp3, Young F 5xFAD brain",-0.1143
same,logFC_NVS.PAK1.1_vs_vehicle,"Plxna4, Young F 5xFAD brain",0.1065
same,logFC_NVS.PAK1.1_vs_vehicle,"Pnpo, Young F 5xFAD brain",0.2
same,logFC_NVS.PAK1.1_vs_vehicle,"Ppp1r21, Young F 5xFAD brain",-0.1088
same,logFC_NVS.PAK1.1_vs_vehicle,"Ptgds, Young F 5xFAD brain",-0.128
same,logFC_NVS.PAK1.1_vs_vehicle,"RTRAF, Young F 5xFAD brain",-0.06356
same,logFC_NVS.PAK1.1_vs_vehicle,"Rab27b, Young F 5xFAD brain",0.1779
same,logFC_NVS.PAK1.1_vs_vehicle,"Rab33a, Aged M 5xFAD brain",-0.2639
same,logFC_NVS.PAK1.1_vs_vehicle,"Rap2a, Young F 5xFAD brain",0.09042
same,logFC_NVS.PAK1.1_vs_vehicle,"Rasgef1a, Aged M 5xFAD brain",0.8766
same,logFC_NVS.PAK1.1_vs_vehicle,"Rbm4b, Aged M 5xFAD brain",-0.3664
same,logFC_NVS.PAK1.1_vs_vehicle,"Robo2, Young M 5xFAD brain",0.2982
same,logFC_NVS.PAK1.1_vs_vehicle,"Rock2, Aged F 5xFAD brain",0.0515
same,logFC_NVS.PAK1.1_vs_vehicle,"Rpl34, Young F 5xFAD brain",-0.09945
same,logFC_NVS.PAK1.1_vs_vehicle,"Rps3, Young F 5xFAD brain",-0.04356
same,logFC_NVS.PAK1.1_vs_vehicle,"S100a1, Young F 5xFAD brain",-0.119
same,logFC_NVS.PAK1.1_vs_vehicle,"Sec14l2, Young F 5xFAD brain",-0.1884
same,logFC_NVS.PAK1.1_vs_vehicle,"Senp3, Young M 5xFAD brain",-0.3344
same,logFC_NVS.PAK1.1_vs_vehicle,"Septin2, Young F 5xFAD brain",-0.1026
same,logFC_NVS.PAK1.1_vs_vehicle,"Septin3, Young F 5xFAD brain",0.07371
same,logFC_NVS.PAK1.1_vs_vehicle,"Serpinb6, Young F 5xFAD brain",-0.1362
same,logFC_NVS.PAK1.1_vs_vehicle,"Sgip1, Young M 5xFAD brain",0.06159
same,logFC_NVS.PAK1.1_vs_vehicle,"Snw1, Aged F 5xFAD brain",-0.2022
same,logFC_NVS.PAK1.1_vs_vehicle,"Spag9, Aged F 5xFAD brain",-0.08904
same,logFC_NVS.PAK1.1_vs_vehicle,"Stom, Aged F 5xFAD brain",-0.4369
same,logFC_NVS.PAK1.1_vs_vehicle,"Stom, Young M 5xFAD brain",-0.67
same,logFC_NVS.PAK1.1_vs_vehicle,"Stxbp5, Aged M 5xFAD brain",-0.08024
same,logFC_NVS.PAK1.1_vs_vehicle,"Syngr1, Young M 5xFAD brain",0.07489
same,logFC_NVS.PAK1.1_vs_vehicle,"Sypl1, Aged M 5xFAD brain",0.2577
same,logFC_NVS.PAK1.1_vs_vehicle,"Tbc1d24, Young F 5xFAD brain",0.08048
same,logFC_NVS.PAK1.1_vs_vehicle,"Tkfc, Aged M 5xFAD brain",-0.1852
same,logFC_NVS.PAK1.1_vs_vehicle,"Tom1l2, Aged M 5xFAD brain",0.07172
same,logFC_NVS.PAK1.1_vs_vehicle,"Txndc16, Young M 5xFAD brain",-1.405
same,logFC_NVS.PAK1.1_vs_vehicle,"Usp54, Aged M 5xFAD brain",2.652
same,logFC_NVS.PAK1.1_vs_vehicle,"Vasp, Young F 5xFAD brain",0.6308
same,logFC_NVS.PAK1.1_vs_vehicle,"Vps33b, Aged M 5xFAD brain",-0.1328
same,logFC_NVS.PAK1.1_vs_vehicle,"Wasf3, Young M 5xFAD brain",0.12
same,logFC_NVS.PAK1.1_vs_vehicle,"Zfp967;Zfp968, Young F 5xFAD brain",-1.398
